The assay concerns FGFR (phosphorylated) in DRG explants. The experiment in a line: Western blot of phosphorylated FGFR in ex vivo DRG explants. It counts as cell-based, Sprague-Dawley rat. The conditions noted are these: CH02 20 μM + BGJ398 2 μM, 4 h, n = 3. The procedure: Figure 5 Role of FGFR signaling in response to the CH02 peptide on promoting nerve regeneration. (A) Western blot analysis of phosphorylated FGFR expression in C5-T1 DRGs subjected to dorsal root crush injury, followed by CH02 treatment (20 μM). DRGs were collected after 3 days. Glyceraldehyde-3-phosphate dehydrogenase (GAPDH) antibodies were used as the loading control. (B) Western blot analysis of phosphorylated FGFR expression in ex vivo cultured DRG explants of adult Sprague-Dawley rats in response to CH02 treatment at different induction times. […] (D-F) Quantification of p-FGFR expression levels in panels A, B, and C. n = 3 independent experiments. Relative protein expression levels were quantified after normalization to FGFR2 or FGFR1. […] (H) Quantification of axon growth in DRG explants (G) using Neurite-J software (n = 5 for each condition; *control vs. CH02; #control vs. BGJ398; **p < 0.01, ***p < 0.001, ****p < 0.0001, #p < 0.05, ##p < 0.01 by two-way ANOVA with Dunnett's test; mean ± SEM). […] Images of random neurons were acquired by fluorescence microscopy. […] (J) Quantification of the longest axon length of each neuron randomly selected from (I) using Image-Pro Plus 6.0 software (n = 100 for each condition; *p < 0.05, **p < 0.01, ****p < 0.0001 by one-way ANOVA with Dunnett's; ns, not significant; mean ± SD). […]
A general note: Immunoblotting shows a protein as a band on a membrane.

As for `CCN1CCN(c2ccc(Nc3cc(N(C)C(=O)Nc4c(Cl)c(OC)cc(OC)c4Cl)ncn3)cc2)CC1` [BGJ398], the “effect of inhibitor on CH02-upregulated phosphorylated FGFR” value is recorded as “counteracted CH02 effects on upregulated phosphorylated FGFR levels”.

Values taken from paper PMC8581430, “Peptide ligands targeting FGF receptors promote recovery from dorsal root crush injury via AKT/mTOR signaling” (Theranostics, 2021).
